Where two headings read alike, the source gives them in different places.
Legend:
SARS-CoV-2 [1] = assay: Inhibitory effect of ATRA on SARS-CoV-2 proliferation (nucleocapsid Western blotting and real-time PCR); type: cell-based; settings: MOI 0.01, 24 hours
Description: In this Example, the inhibitory effect of SARS-CoV-2 proliferation by ATRA, a therapeutic agent for promyelocytic leukemia known to have inhibitory activity against Pin1. ATRA was added to VeroE6/TMPRSS2 cells to the final concentrations of 0, 0.5, 1, 5, 10, 20, and 30 μM, to which SARS-CoV-2 was infected at multiplicity of infection (MOI) of 0.01 after 2 hours, followed by recovering cell lysate after 24 hours and then detecting SARS-CoV-2 nucleocapsid, Pin1 and actin as an internal standard in the cells by Western blotting. SARS-CoV-2 proliferation was evaluated on the basis of the expression level of SARS-CoV-2 nucleocapsid in the cells.

SARS-CoV-2 [2] = assay: Confirmation test of suppressing effect against SARS-CoV-2 proliferation (nucleocapsid Western blotting, VeroE6/TMPRSS2 cells); type: cell-based; settings: 20 μM Pin1 inhibitor, VeroE6/TMPRSS2 cells, MOI 10, cell lysate 8 hours after infection, nucleocapsid band area vs no inhibitor; for inhibition at 20 µM: Severe acute respiratory syndrome coronavirus 2, VeroE6/TMPRSS2, 8 h, read-out: Inhibition Rate
SARS-CoV-2 [3] = type: cell-based; settings: MOI 0.01, 24 hours after infection, real-time PCR
SARS-CoV-2 [4] = assay: Suppressing effect against SARS-CoV-2 proliferation at 5 or 10 μM (nucleocapsid Western blotting); type: cell-based; settings: 5 μM, MOI 10, cell lysate 8 hours after infection
SARS-CoV-2 [5] = type: cell-based; settings: MOI 0.01 to 0.02, 24 hours
[6] = tested on: feline coronavirus (FCoV); settings: cited from earlier work

Structure (SMILES)	inhibition at 20 µM (SARS-CoV-2 [2]) [%]	other results
CC1=C(/C=C/C(C)=C/C=C/C(C)=C/C(=O)O)C(C)(C)CCC1 [ATRA]	–	proliferation of SARS-CoV-2 (SARS-CoV-2 [1]; 5 μM or more): suppressed; proliferation of SARS-CoV-2 (SARS-CoV-2 [1]; 10 μM or more): substantially suppressed
O=C(Nc1ccc(OCc2ccccc2)cc1C(=O)O)c1ccc2ccccc2c1 [H-77]	–	Inhibition Rate (SARS-CoV-2 [2]): 96%; proliferation of SARS-CoV-2 (SARS-CoV-2 RNA level in supernatant) (SARS-CoV-2 [3]; 5 μM): suppressed; proliferation of SARS-CoV-2 (SARS-CoV-2 RNA level in supernatant) (SARS-CoV-2 [3]; 7.5 μM): substantially suppressed; inhibition rate of SARS-CoV-2 nucleocapsid (Western blotting) (SARS-CoV-2 [4]): high inhibition rate; SARS-CoV-2 proliferation (SARS-CoV-2 [5]; 10 μM added 2 hours before the infection): suppressed; SARS-CoV-2 detection (SARS-CoV-2 [5]; 10 μM added 6 hours after the infection): slightly detected; SARS-CoV-2 proliferation (SARS-CoV-2 [5]; 10 μM added after the infection (2 hours, 6 hours)): suppressed; SARS-CoV-2 proliferation (SARS-CoV-2 [5]; 10 μM added at the time of the infection): suppressed
O=C(Cn1c2ccccc2c2ccccc21)Nc1ccc(OCc2ccc3ccccc3c2)cc1C(=O)O [H-537]	96	inhibition rate of SARS-CoV-2 nucleocapsid (Western blotting) (SARS-CoV-2 [4]): high inhibition rate
O=C(O)c1cc(NC(=O)c2ccc3ccccc3n2)cc(NC(=O)n2c3ccccc3c3ccccc32)c1 [H-688]	98	inhibition rate of SARS-CoV-2 nucleocapsid (Western blotting) (SARS-CoV-2 [4]): high inhibition rate
O=C(Nc1ccc(OCc2ccc3ccccc3c2)cc1C(=O)O)c1ccc2c(c1)OCCO2 [H-787]	97	–
O=C(Nc1ccc(OCc2ccccc2)cc1C(=O)O)c1ccc2c(c1)OCCO2 [H-800]	91	–
COC(=O)c1cc(N)cc(NC(=O)CN(c2ccccc2)c2ccccc2)c1 [H-816]	63	–
Nc1cc(NC(=O)CN(c2ccccc2)c2ccccc2)cc(C(=O)O)c1 [H-817]	61	–
O=C(CN(c1ccccc1)c1ccccc1)Nc1cc(NC(=O)c2ccc3ccccc3c2)cc(C(=O)O)c1 [H-819]	95	–
O=C(CN(c1ccccc1)c1ccccc1)Nc1cc(NC(=O)c2ccc3ccccc3n2)cc(C(=O)O)c1 [H-821]	95	–
COC(=O)c1cc(OCc2ccncc2)ccc1NC(=O)c1cccnc1 [H-832]	65	–
O=C(Cn1c2ccccc2c2ccccc21)Nc1ccc(OCc2ccccc2)cc1C(=O)O [H-835]	99	–
O=C(Cc1cccc2ccccc12)Nc1ccc(OCc2ccccc2)cc1C(=O)O [H-839]	83	–
COC(=O)[C@@H](Cc1ccc2ccccc2c1)NC(=O)c1ccc(CNC(=O)OC(C)(C)C)cc1 [H-848]	53	–
CC(C)(C)OC(=O)NCc1ccc(C(=O)N[C@H](Cc2ccc3ccccc3c2)C(=O)O)cc1 [H-849]	50	–
NCc1ccc(C(=O)N[C@H](Cc2ccc3ccccc3c2)C(=O)O)cc1 [H-851]	59	–
O=C(O)[C@@H](Cc1ccc2ccccc2c1)NC(=O)n1c2ccccc2c2ccccc21 [H-853]	99	–
COC(=O)c1cc(NC(=O)CC2c3ccccc3-c3ccccc32)cc(NC(=O)c2ccc3ccccc3c2)c1 [H-857]	55	–
COC(=O)c1cc(NC(=O)CC2c3ccccc3-c3ccccc32)cc(NC(=O)c2ccc3c(c2)OCCO3)c1 [H-859]	89	–
COC(=O)c1cc(NC(=O)c2ccc(CN)cc2)cc(NC(=O)n2c3ccccc3c3ccccc32)c1 [H-870]	97	–
NCc1ccc(C(=O)Nc2cc(NC(=O)n3c4ccccc4c4ccccc43)cc(C(=O)O)c2)cc1 [H-871]	61	–
COC(=O)c1cc(NC(=O)OC(C)(C)C)cc(NC(=O)n2ccc3ccccc32)c1 [H-872]	78	–
CC(C)(C)OC(=O)Nc1cc(NC(=O)n2ccc3ccccc32)cc(C(=O)O)c1 [H-873]	67	–
O=C(O)c1cc(NC(=O)c2ccc3c(c2)OCCO3)cc(NC(=O)n2ccc3ccccc32)c1 [H-876]	69	–
O=C(O)c1cc(NC(=O)c2ccc3ccccc3c2)cc(NC(=O)n2ccc3ccccc32)c1 [H-878]	56	–
COC(=O)c1cc(NC(=O)c2ccc(CN)cc2)cc(NC(=O)n2ccc3ccccc32)c1 [H-881]	88	–
COC(=O)c1cc(NC(=O)c2ccc(CN(C)C)cc2)cc(NC(=O)n2c3ccccc3c3ccccc32)c1 [H-890]	54	–
S=C(SC(=S)N1CCCCC1)N1CCCCC1 [dipentamethylenethiuram monosulfide]	–	replication of feline coronavirus (FCoV) [6]: inhibited

From patent US20240024266A1, “Therapeutic Agent or Prophylactic Agent for COVID-19” (priority 2020, published 2024)
